Data: patent publication US9469617B2, “Molecules having certain pesticidal utilities, and intermediates, compositions, and processes related thereto” (priority 2014, dated 2016)

How the values were obtained:
Type in all cases: in vivo
[1] = system: Cabbage Looper (CL) (Trichoplusia ni); experiment: Bioassay on Cabbage Looper (CL), 128-well diet tray assay; details: 168 h, Table ABC, 50 μg/cm^2 on artificial diet, second instar larvae, five to seven days, 25° C., read-out: CL % Control (or Mortality) rating
Procedure: (§1) Certain molecules disclosed in this document were tested against BAW and CL using procedures described in the following examples. In the reporting of the results, the “BAW & CL Rating Table” was used (See Table Section).
Bioassays on CL were conducted using a 128-well diet tray assay. One to five second instar CL larvae were placed in each well (3 mL) of the diet tray that had been previously filled with 1 mL of artificial diet to which 50 μg/cm^2 of the test compound (dissolved in 50 μL of 90:10 acetone-water mixture) had been applied (to each of eight wells) and then allowed to dry. Trays were covered with a clear self-adhesive cover, and held at 25° C., 14:10 light-dark for five to seven days. Percent mortality was recorded for the larvae in each well; activity in the eight wells was then averaged. The results are indicated in the table entitled “Table ABC: Assay Results” and “Table ABCD: Assay Results” (See Table Section).

[2] = system: Beet Armyworm (BAW) (Spodoptera exigua); experiment: Bioassay on Beet Armyworm (BAW), 128-well diet tray assay; details: 168 h, Table ABC, 50 μg/cm^2 on artificial diet, second instar larvae, five to seven days, 25° C., read-out: BAW % Control (or Mortality) rating
Procedure: as §1
Bioassays on BAW were conducted using a 128-well diet tray assay. one to five second instar BAW larvae were placed in each well (3 mL) of the diet tray that had been previously filled with 1 mL of artificial diet to which 50 μg/cm^2 of the test compound (dissolved in 50 μL of 90:10 acetone-water mixture) had been applied (to each of eight wells) and then allowed to dry. Trays were covered with a clear self-adhesive cover, and held at 25° C., 14:10 light-dark for five to seven days. Percent mortality was recorded for the larvae in each well; activity in the eight wells was then averaged. The results are indicated in the tables entitled “Table ABC: Assay Results” and “Table ABCD: Assay Results” (See Table Section).

[3] = system: Yellow Fever Mosquito (YFM) (Aedes aegypti); experiment: Bioassay on Yellow Fever Mosquito (YFM) larvae, 96-well plate; details: Table ABC; about 1 day-old larvae, master plate 4000 ppm in DMSO diluted, scored on mortality after 3 days
Procedure: Certain molecules disclosed in this document were tested against YFM using procedures described in the following paragraph. In the reporting of the results, the “GPA & YFM Rating Table” was used (See Table Section).
Master plates containing 400 μg of a molecule dissolved in 100 μL of dimethyl sulfoxide (DMSO) (equivalent to a 4000 ppm solution) are used. A master plate of assembled molecules contains 15 μL per well. To this plate, 135 μL of a 90:10 water:acetone mixture is added to each well. A robot (Biomek® NXP Laboratory Automation Workstation) is programmed to dispense 15 μL aspirations from the master plate into an empty 96-well shallow plate (“daughter” plate). There are 6 reps (“daughter” plates) created per master. The created daughter plates are then immediately infested with YFM larvae.
The day before plates are to be treated, mosquito eggs are placed in Millipore water containing liver powder to begin hatching (4 g. into 400 mL). After the daughter plates are created using the robot, they are infested with 220 μL of the liver powder/larval mosquito mixture (about 1 day-old larvae). After plates are infested with mosquito larvae, a non-evaporative lid is used to cover the plate to reduce drying. Plates are held at room temperature for 3 days prior to grading. After 3 days, each well is observed and scored based on mortality.

Row | SMILES | mortality at 50 µg/cm2 [1] | mortality at 50 µg/cm2 [2] | YFM % Control (or Mortality) rating [3]
1 | O=C(NC(=S)Nc1ccccc1C1CC1)NC1Cc2ccc(-c3ncn(-c4ccc(OC(F)(F)F)cc4)n3)cc2C1 (stereo not drawn) [F11, 1-[(2-Cyclopropylphenyl)carbamothioyl]-3-[5-[1-[4-(trifluoromethoxy)phenyl]-1,2,4-triazol-3-yl]indan-2-yl]urea] | 50 to 100% | 50 to 100% | A (80-100)
2 | CC(C)c1ccccc1N1C(=O)CS/C1=N\C(=O)NC1Cc2ccc(-c3ncn(-c4ccc(OC(F)(F)F)cc4)n3)cc2C1 (stereo not drawn) [F16, (Z)-1-(3-(2-Isopropylphenyl)-4-oxothiazolidin-2-ylidene)-3-(5-(1-(4-(trifluoromethoxy)phenyl)-1H-1,2,4-triazol-3-yl)-2,3-dihydro-1H-inden-2-yl)urea] | 50 to 100% | 50 to 100% | A (80-100)
3 | Cc1ccc(C(C)C)c(N2C(=O)CS/C2=N\C(=O)NC2CCc3cc(-c4ncn(-c5ccc(OC(F)(F)F)cc5)n4)ccc3C2)c1 (stereo not drawn) [F17, (Z)-1-(3-(2-isopropyl-5-methylphenyl)-4-oxothiazolidin-2-ylidene)-3-(6-(1-(4-(trifluoromethoxy)phenyl)-1H-1,2,4-triazol-3-yl)-1,2,3,4-tetrahydronaphthalen-2-yl)urea] | 50 to 100% | 50 to 100% | A (80-100)
4 | Cc1cs/c(=N\C(=O)NC2Cc3ccc(-c4ncn(-c5ccc(OC(F)(F)F)cc5)n4)cc3C2)n1-c1ccccc1C(C)C (stereo not drawn) [FA1, (Z)-1-(3-(2-isopropylphenyl)-4-methylthiazol-2(3H)-ylidene)-3-(5-(1-(4-(trifluoromethoxy)phenyl)-1H-1,2,4-triazol-3-yl)-2,3-dihydro-1H-inden-2-yl)urea] | 50 to 100% | 50 to 100% | A (80-100)
5 | CC(C)c1ccccc1N1/C(=N/C(=O)NC2Cc3ccc(-c4ncn(-c5ccc(OC(F)(F)F)cc5)n4)cc3C2)SCC1C (stereo not drawn) [FA3, (Z)-1-(3-(2-isopropylphenyl)-4-methylthiazolidin-2-ylidene)-3-(5-(1-(4-(trifluoromethoxy)phenyl)-1H-1,2,4-triazol-3-yl)-2,3-dihydro-1H-inden-2-yl)urea] | 0% | 50 to 100% | B (More than 0-Less than 80)
6 | CC1CS/C(=N\C(=O)NC2Cc3ccc(-c4ncn(-c5ccc(OC(F)(F)F)cc5)n4)cc3C2)N(c2ccccc2C(C)C)C1 (stereo not drawn) [FA5, (Z)-1-(3-(2-Isopropylphenyl)-5-methyl-1,3-thiazinan-2-ylidene)-3-(5-(1-(4-(trifluoromethoxy)phenyl)-1H-1,2,4-triazol-3-yl)-2,3-dihydro-1H-inden-2-yl)urea] | 50 to 100% | 50 to 100% | A (80-100)
7 | CC(C)c1ccccc1N1/C(=N/C(=O)NC2Cc3ccc(-c4ncn(-c5ccc(OC(F)(F)F)cc5)n4)cc3C2)SCCC1C (stereo not drawn) [FA6, (Z)-1-(3-(2-Isopropylphenyl)-4-methyl-1,3-thiazinan-2-ylidene)-3-(5-(1-(4-(trifluoromethoxy)phenyl)-1H-1,2,4-triazol-3-yl)-2,3-dihydro-1H-inden-2-yl)urea] | 50 to 100% | 50 to 100% | A (80-100)
8 | COc1ccc(NC(=S)NC(=O)NC2Cc3ccc(-c4ncn(-c5ccc(OC(F)(F)F)cc5)n4)cc3C2)c(C)c1 (stereo not drawn) [P1] | 50 to 100% | 50 to 100% | A (80-100)
9 | CC(C)c1cc(F)ccc1NC(=S)NC(=O)NC1Cc2ccc(-c3ncn(-c4ccc(OC(F)(F)F)cc4)n3)cc2C1 (stereo not drawn) [P2, 1-[(4-Fluoro-2-isopropyl-phenyl)carbamothioyl]-3-[5-[1-[4-(trifluoromethoxy)phenyl]-1,2,4-triazol-3-yl]indan-2-yl]urea] | 50 to 100% | 50 to 100% | A (80-100)
10 | CC(C)c1ccc(Cl)cc1NC(=S)NC(=O)NC1Cc2ccc(-c3ncn(-c4ccc(OC(F)(F)F)cc4)n3)cc2C1 (stereo not drawn) [P3, 1-[(5-Chloro-2-isopropyl-phenyl)carbamothioyl]-3-[5-[1-[4-(trifluoromethoxy)phenyl]-1,2,4-triazol-3-yl]indan-2-yl]urea] | 50 to 100% | 50 to 100% | A (80-100)
11 | COc1ccc(C(C)C)c(NC(=S)NC(=O)NC2Cc3ccc(-c4ncn(-c5ccc(OC(F)(F)F)cc5)n4)cc3C2)c1 (stereo not drawn) [P4, 1-[(2-Isopropyl-5-methoxy-phenyl)carbamothioyl]-3-[5-[1-[4-(trifluoromethoxy)phenyl]-1,2,4-triazol-3-yl]indan-2-yl]urea] | 50 to 100% | 50 to 100% | A (80-100)
12 | Cc1ccc(NC(=S)NC(=O)NC2Cc3ccc(-c4ncn(-c5ccc(OC(F)(F)F)cc5)n4)cc3C2)c(C(C)C)c1 (stereo not drawn) [P5, 1-[(2-Isopropyl-4-methyl-phenyl)carbamothioyl]-3-[5-[1-[4-(trifluoromethoxy)phenyl]-1,2,4-triazol-3-yl]indan-2-yl]urea] | 50 to 100% | 50 to 100% | A (80-100)
13 | COc1ccc(N2C(=O)CS/C2=N\C(=O)NC2Cc3ccc(-c4ncn(-c5ccc(OC(F)(F)F)cc5)n4)cc3C2)c(C)c1 (stereo not drawn) [P6, (Z)-1-(3-(4-methoxy-2-methylphenyl)-4-oxothiazolidin-2-ylidene)-3-(5-(1-(4-(trifluoromethoxy)phenyl)-1H-1,2,4-triazol-3-yl)-2,3-dihydro-1H-inden-2-yl)urea] | 50 to 100% | 50 to 100% | A (80-100)
14 | Cc1ccc(N2C(=O)CS/C2=N\C(=O)NC2Cc3ccc(-c4ncn(-c5ccc(OC(F)(F)F)cc5)n4)cc3C2)c(C(C)C)c1 (stereo not drawn) [P7, (Z)-1-(3-(2-Isopropyl-4-methylphenyl)-4-oxothiazolidin-2-ylidene)-3-(5-(1-(4-(trifluoromethoxy)phenyl)-1H-1,2,4-triazol-3-yl)-2,3-dihydro-1H-inden-2-yl)urea] | 50 to 100% | 50 to 100% | A (80-100)
15 | CC(C)c1ccc(Cl)cc1N1C(=O)CS/C1=N\C(=O)NC1Cc2ccc(-c3ncn(-c4ccc(OC(F)(F)F)cc4)n3)cc2C1 (stereo not drawn) [P8, (Z)-1-(3-(5-Chloro-2-isopropylphenyl)-4-oxothiazolidin-2-ylidene)-3-(5-(1-(4-(trifluoromethoxy)phenyl)-1H-1,2,4-triazol-3-yl)-2,3-dihydro-1H-inden-2-yl)urea] | 50 to 100% | 50 to 100% | A (80-100)
16 | COc1ccc(C(C)C)c(N2C(=O)CS/C2=N\C(=O)NC2Cc3ccc(-c4ncn(-c5ccc(OC(F)(F)F)cc5)n4)cc3C2)c1 (stereo not drawn) [P9, (Z)-1-(3-(2-Isopropyl-5-methoxyphenyl)-4-oxothiazolidin-2-ylidene)-3-(5-(1-(4-(trifluoromethoxy)phenyl)-1H-1,2,4-triazol-3-yl)-2,3-dihydro-1H-inden-2-yl)urea] | 50 to 100% | 50 to 100% | A (80-100)
17 | CC(C)c1cc(F)ccc1N1C(=O)CS/C1=N\C(=O)NC1Cc2ccc(-c3ncn(-c4ccc(OC(F)(F)F)cc4)n3)cc2C1 (stereo not drawn) [P10, (Z)-1-(3-(4-Fluoro-2-isopropylphenyl)-4-oxothiazolidin-2-ylidene)-3-(5-(1-(4-(trifluoromethoxy)phenyl)-1H-1,2,4-triazol-3-yl)-2,3-dihydro-1H-inden-2-yl)urea] | 50 to 100% | 50 to 100% | A (80-100)
